A short description of the series: Dynamic vapor sorption (DVS) hygroscopicity. The series is classed as physicochemical. As to the method:
Hygroscopicity was studied using dynamic vapor sorption (DVS, TA Q5000 SA, TA Instruments, New Castle, DE or DVS, DVS Intrinsic, Surface Measurement Systems, London, UK). A sample (2-20 mg) was placed in an aluminum DVS pan and loaded on the sample side of the twin pan balance. The water sorption and desorption were studied as a function of relative humidity (RH) at 25° C. In 10% RH increments, the relative humidity was increased from 5% RH to 95% RH and then decreased back to 5%. […] Data analysis was performed using Universal Analysis 2000 Version 4.7A (TA Instruments, New Castle, DE) for TA DVS runs and Microsoft Excel for SMS DVS runs.

SMILES strings stand for the structures.

For the compound `C[C@H](C#N)Nc1cc(-c2ccc3cc(C#N)cnn23)ncc1C(=O)NC[C@@H](F)C(C)(C)O` [Form IV, 4-(((R)-1-cyanoethyl)amino)-6-(3-cyanopyrrolo[1,2-b]pyridazin-7-yl)-N—((R)-2-fluoro-3-hydroxy-3-methylbutyl)nicotinamide], the “water absorbed (DVS analysis)” value (25° C. and 95% RH) is given as “less than 0.1 wt %”. Moreover, the “hygroscopicity (DVS analysis)” value (25° C., up to 95% RH) is on record as “non-hygroscopic”. The “form change by XRPD analysis of the sample post DVS analysis” value (post DVS) is listed as “no form change”.

Values taken from patent US20250034154A1, “SALTS AND SOLID FORMS OF A COMPOUND THAT MODULATES IRAK4” (Gilead Sciences, Inc., priority 2023, published 2025).
